Measured values: patent US20050034189A1, “Chitin oligosaccharide elicitor- and gibberellin-responsive genes in plants, and uses thereof” (National Institute of Agrobiological Sciences, priority 2001, published 2005)

Assays:
[1] = test system: CIGR1 gene and CIGR2 gene; assay: Effect of inhibitors on induction of CIGR1 and CIGR2 genes by GA3 in cultured rice cells; assay type: cell-based; details: inhibitor added ten minutes before; okadaic acid 1 μM, lavendustin A 30 μM, K-252a 20 μM
Method: (§1) FIG. 11 depicts photographs representing the effects of protein kinase inhibitors on elicitor response and gibberellin response. The following compounds were added ten minutes before the treatment with chitin heptamer (GN7) or gibberellin (GA3). (A): the positive control of the elicitor response; (B): okadaic acid (1 μM); (C), lavendustin A (30 μM); (D), K-252a (20 μM).
(§2) In addition, the effects of various inhibitors on the inductions by gibberellin and elicitors of CIGR1 gene and CIGR2 gene in the cultured rice cells were examined. Referring to the results of Kuo et al., cells pretreated with okadaic acid were tested. […] From these observations, protein phosphatase was presumed to be involved in signal transduction from gibberellin to CIGR1 gene and CIGR2 gene in cultured rice cells. Following these experiments, the effects of protein kinase inhibitors were studied.

[2] = test system: elicitor-responsive genes; details: pretreatment with K-252a; suspension-cultured rice cells; cited from earlier work
α-amylase = details: aleurone layer of wheat; listed as K252a; cited from earlier work
[3] = test system: CIGR1 gene and CIGR2 gene; assay: Effect of inhibitors on induction of CIGR1 and CIGR2 genes by chitin heptamer in cultured rice cells; assay type: cell-based; details: inhibitor added ten minutes before; okadaic acid 1 μM, lavendustin A 30 μM, K-252a 20 μM
Method: as §1, §2

COC(=O)[C@@]1(O)C[C@H]2O[C@]1(C)n1c3ccccc3c3c4c(c5c6ccccc6n2c5c31)C(=O)NC4 [K-252-A]
inhibition of induction of both genes by GA3 [1]: almost completely | inhibition of induction of expression of elicitor-responsive genes [2]: strongly inhibited | inhibition of gibberellin induction of α-amylase (α-amylase): hardly inhibited | inhibition of induction of both genes by chitin heptamer [3]: almost completely
